Data: patent publication US8815565B2, “Method for culturing mycoplasma contamination-free cells and method for removing mycoplasma contamination of cells” (Cellsafe Co., Ltd., priority 2010, dated 2014)

System: cells contaminated with mycoplasma
Assay: Mycoplasma removal potential when amphidinol derivative was used, by filter pore size
Type: cell-based
Protocol: A medium was removed from the cell culture (80 to 90% confluent) which was cultured in the T-75 culture flask in (1) of Example 3 and which was confirmed as being contaminated with mycoplasma. The obtained cells were washed twice with 10 ml of a phosphate buffer solution. 2 ml of trypsin-EDTA was added thereto, followed by incubating at a temperature of 37° C. for 10 minutes to detach cells. Then, DMEM (GIBCO BRL, Cat. No. 12800-058) was added thereto to obtain 10 ml of cell suspension, which was then transferred to a 15 ml conical tube. The cell suspension in the conical tube was centrifuged at a rate of 1,500 rpm for 5 minutes, and then the supernatant was removed therefrom. 10 ml of 5% FBS-containing DMEM (GIBCO BRL, Cat. No. 12800-058) was added to the conical tube to obtain a cell suspension. The obtained cell suspension was divided into two groups each having an amount of 5 ml. […] The cell suspensions of the group 1 and 2 were diluted with 5% FBS-including DMEM (GIBCO BRL, Cat. No. 12800-058) to adjust the cell concentration to about 2.5×10^5 cells/ml, respectively. 4 ml of each cell suspension of the group 1 and 2 (each having about 2.5×10^5 cells/ml of cells) was transferred to a 15 ml tube, and then […] of 5% FBS-containing DMEM (GIBCO BRL, Cat. No. 12800-058) was added thereto. […] 10 ml of each of the obtained mixtures was transferred to a T-75 culture flask, followed by culturing for 3 days in a CO2 incubator for 3 days (passage 1 sub-culturing).
The medium was removed from the cell culture (80 to 90% confluent) which was cultured in the T-75 culture flask for 3 days. The obtained cells were washed twice with 10 ml of a phosphate buffer solution. 2 ml of trypsin-EDTA was added thereto, followed by incubating at a temperature of 37° C. for 10 minutes to detach the cells. Then, DMEM (GIBCO BRL, Cat. No. 12800-058) was added thereto to obtain 10 ml of cell suspension, which was then transferred to a 15 ml conical tube. The cell suspension in the conical tube was centrifuged at a rate of 1,500 rpm for 5 minutes, and then the supernatant was removed therefrom. 10 ml of 10% FBS-containing DMEM (GIBCO BRL, Cat. No. 12800-058) was added to the conical tube to obtain a cell suspension. The obtained cell suspension was divided into two groups each having an amount of 5 ml. […] The cell suspensions of the group 1 and 2 were diluted with 10% FBS-including DMEM (GIBCO BRL, Cat. No. 12800-058) to adjust the cell concentration to about 2.5×10^5 cells/ml, respectively. 4 ml of each cell suspension of the group 1 and 2 (each having about 2.5×10^5 cells/ml of cells) was transferred to a 15 ml tube, and then 5.5 ml of 10% FBS-containing DMEM (GIBCO BRL, Cat. No. 12800-058) was added thereto. […] 10 ml of each of the obtained mixtures was transferred to a T-75 culture flask, followed by culturing […] (passage 2 sub-culturing). The sub-culturing was performed twice more, and thus, passage 4 sub-culturing steps in total were performed.
Mycoplasma contamination was measured regarding the respective cells of the additional passages 1, 3, 6, 10, 12, 15, and 33 after the initial passage 4 treatments. Whether mycoplasma was removed was measured with a mycoplasma diagnosis kit (Promokine, Germany; Cellsafe Co., Ltd., Korea) according to the enclosed protocol. The resulting PCR products were electrophoresed on a 1% agarose gel to measure the mycoplasma contamination.
Sub-culturing was performed in the same manner as in (1), except that 2 μg/ml of the compound of Formula 3 was used as a reagent for removing mycoplasma , and the filters (Millipore) having pore sizes of 11, 20, 30, 60, 80, 90, and 100 μm and the filters (Falcon) having pore sizes of 40, 50, and 70 μm were used, and then, the mycoplasma contamination was measured.

Measured: mycoplasma contamination

C=C/C=C/CC/C=C/C=C/C=C/CC/C=C/C(O)C(O)C1OC(C(O)C(O)C(=C)CCC(O)C2CC(O)C(O)C(C(O)C(O)/C=C(\C)CCC(O)CC(O)C(O)C(C)CC(O)C(O)CCCCCC(O)CCCC(O)/C=C/CC(O)/C=C/CC(O)CO)O2)CC(O)C1O (centres unmarked) [AM3, amphidinol 3]
completely removed: filter having a pore size of 10 to 100 μM
−: 2 μg/ml, Pore size 11 μm, Passage 1 after treatment | 2 μg/ml, Pore size 11 μm, Passage 3 after treatment | 2 μg/ml, Pore size 11 μm, Passage 6 after treatment | 2 μg/ml, Pore size 11 μm, Passage 10 after treatment | 2 μg/ml, Pore size 11 μm, Passage 12 after treatment | 2 μg/ml, Pore size 11 μm, Passage 15 after treatment | 2 μg/ml, Pore size 11 μm, Passage 33 after treatment | 2 μg/ml, Pore size 20 μm, Passage 1 after treatment | 2 μg/ml, Pore size 20 μm, Passage 3 after treatment | 2 μg/ml, Pore size 20 μm, Passage 6 after treatment | 2 μg/ml, Pore size 20 μm, Passage 10 after treatment | 2 μg/ml, Pore size 20 μm, Passage 12 after treatment | 2 μg/ml, Pore size 20 μm, Passage 15 after treatment | 2 μg/ml, Pore size 20 μm, Passage 33 after treatment | 2 μg/ml, Pore size 30 μm, Passage 1 after treatment | 2 μg/ml, Pore size 30 μm, Passage 3 after treatment | 2 μg/ml, Pore size 30 μm, Passage 6 after treatment | 2 μg/ml, Pore size 30 μm, Passage 10 after treatment | 2 μg/ml, Pore size 30 μm, Passage 12 after treatment | 2 μg/ml, Pore size 30 μm, Passage 15 after treatment | 2 μg/ml, Pore size 30 μm, Passage 33 after treatment | 2 μg/ml, Pore size 40 μm, Passage 1 after treatment | 2 μg/ml, Pore size 40 μm, Passage 3 after treatment | 2 μg/ml, Pore size 40 μm, Passage 6 after treatment | 2 μg/ml, Pore size 40 μm, Passage 10 after treatment | 2 μg/ml, Pore size 40 μm, Passage 12 after treatment | 2 μg/ml, Pore size 40 μm, Passage 15 after treatment | 2 μg/ml, Pore size 40 μm, Passage 33 after treatment | 2 μg/ml, Pore size 50 μm, Passage 1 after treatment | 2 μg/ml, Pore size 50 μm, Passage 3 after treatment | 2 μg/ml, Pore size 50 μm, Passage 6 after treatment | 2 μg/ml, Pore size 50 μm, Passage 10 after treatment | 2 μg/ml, Pore size 50 μm, Passage 12 after treatment | 2 μg/ml, Pore size 50 μm, Passage 15 after treatment | 2 μg/ml, Pore size 50 μm, Passage 33 after treatment | 2 μg/ml, Pore size 60 μm, Passage 1 after treatment | 2 μg/ml, Pore size 60 μm, Passage 3 after treatment | 2 μg/ml, Pore size 60 μm, Passage 6 after treatment | 2 μg/ml, Pore size 60 μm, Passage 10 after treatment | 2 μg/ml, Pore size 60 μm, Passage 12 after treatment | 2 μg/ml, Pore size 60 μm, Passage 15 after treatment | 2 μg/ml, Pore size 60 μm, Passage 33 after treatment | 2 μg/ml, Pore size 70 μm, Passage 1 after treatment | 2 μg/ml, Pore size 70 μm, Passage 3 after treatment | 2 μg/ml, Pore size 70 μm, Passage 6 after treatment | 2 μg/ml, Pore size 70 μm, Passage 10 after treatment | 2 μg/ml, Pore size 70 μm, Passage 12 after treatment | 2 μg/ml, Pore size 70 μm, Passage 15 after treatment | 2 μg/ml, Pore size 70 μm, Passage 33 after treatment | 2 μg/ml, Pore size 80 μm, Passage 1 after treatment | 2 μg/ml, Pore size 80 μm, Passage 3 after treatment | 2 μg/ml, Pore size 80 μm, Passage 6 after treatment | 2 μg/ml, Pore size 80 μm, Passage 10 after treatment | 2 μg/ml, Pore size 80 μm, Passage 12 after treatment | 2 μg/ml, Pore size 80 μm, Passage 15 after treatment | 2 μg/ml, Pore size 80 μm, Passage 33 after treatment | 2 μg/ml, Pore size 90 μm, Passage 1 after treatment | 2 μg/ml, Pore size 90 μm, Passage 3 after treatment | 2 μg/ml, Pore size 90 μm, Passage 6 after treatment | 2 μg/ml, Pore size 90 μm, Passage 10 after treatment | 2 μg/ml, Pore size 90 μm, Passage 12 after treatment | 2 μg/ml, Pore size 90 μm, Passage 15 after treatment | 2 μg/ml, Pore size 90 μm, Passage 33 after treatment | 2 μg/ml, Pore size 100 μm, Passage 1 after treatment | 2 μg/ml, Pore size 100 μm, Passage 3 after treatment | 2 μg/ml, Pore size 100 μm, Passage 6 after treatment | 2 μg/ml, Pore size 100 μm, Passage 10 after treatment | 2 μg/ml, Pore size 100 μm, Passage 12 after treatment | 2 μg/ml, Pore size 100 μm, Passage 15 after treatment | 2 μg/ml, Pore size 100 μm, Passage 33 after treatment
